In PubChem BioAssay AID248 (DTP/NCI, 2004) one finds T/C data, which are given here for 23 compounds.

This test concerns L1210 leukemia ip in BDF1 mice, survival T/C. The test is described as follows: NCI In Vivo Anticancer Drug Screen. Data for tumor model L1210 Leukemia (intraperitoneal) in B6D2F1 (BDF1) mice. The note with it: endpoint: mean survival time, higher = longer survival. The procedure, abridged: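 Ratio derived from survival: compound-dosed mice over vehicle-dosed mice, all bearing a transplantable tumor.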

Setting [1] is: dose: 100.0 mg/kg/injection, schedule: Q04DX003 (ip), vehicle: saline with Tween-80.
Where [2] appears, read: dose: 200.0 mg/kg/injection, schedule: Q04DX003 (ip), vehicle: saline with Tween-80.
[3] abbreviates: dose: 100.0 mg/kg/injection, schedule: Q01DX001 (ip), vehicle: saline.
Setting [4] is: dose: 200.0 mg/kg/injection, schedule: Q01DX001 (ip), vehicle: saline.
The mark [5] stands for this setting: dose: 400.0 mg/kg/injection, schedule: Q01DX001 (ip), vehicle: saline.
Where [6] appears, read: dose: 100.0 mg/kg/injection, schedule: Q01DX009 (ip), vehicle: saline with Tween-80.
Where [7] appears, read: dose: 50.0 mg/kg/injection, schedule: Q01DX009 (ip), vehicle: Klucel (hydroxypropylcellulose) (HPC).
The mark [8] stands for this setting: dose: 100.0 mg/kg/injection, schedule: Q01DX009 (ip), vehicle: Klucel (hydroxypropylcellulose) (HPC).
Setting [9] is: dose: 100.0 mg/kg/injection, schedule: Q04DX003 (ip), vehicle: Klucel (hydroxypropylcellulose) (HPC).
[10] abbreviates: dose: 200.0 mg/kg/injection, schedule: Q01DX009 (ip), vehicle: Klucel (hydroxypropylcellulose) (HPC).
[11] abbreviates: dose: 200.0 mg/kg/injection, schedule: Q04DX003 (ip), vehicle: Klucel (hydroxypropylcellulose) (HPC).
Where [12] appears, read: dose: 400.0 mg/kg/injection, schedule: Q04DX003 (ip), vehicle: Klucel (hydroxypropylcellulose) (HPC).
[13] abbreviates: dose: 200.0 mg/kg/injection, schedule: Q01DX009 (ip), vehicle: saline with Tween-80.
[14] abbreviates: dose: 400.0 mg/kg/injection, schedule: Q01DX009 (ip), vehicle: saline with Tween-80.
Setting [15] is: dose: 100.0 mg/kg/injection, schedule: Q01DX001 (ip), vehicle: carboxymethylcellulose (CMC).
Setting [16] is: dose: 200.0 mg/kg/injection, schedule: Q01DX001 (ip), vehicle: carboxymethylcellulose (CMC).
Where [17] appears, read: dose: 400.0 mg/kg/injection, schedule: Q01DX001 (ip), vehicle: carboxymethylcellulose (CMC).

Several values for one entry are separate records, joined by “and”; a condition that tells them apart may be missing. Equal values may be shown once. Toxic doses and inconclusive results are not listed.

With `Cc1cc(C2=NCC(C)S2)c(C(C)C)cc1O` (stereo not given), the T/C reads like this: (dose: 100.0 mg/kg/injection, schedule: Q04DX002 (ip), vehicle: saline with Tween-80) 93 % of control; (dose: 200.0 mg/kg/injection, schedule: Q04DX002 (ip), vehicle: saline with Tween-80) 104 % of control; (dose: 400.0 mg/kg/injection, schedule: Q04DX002 (ip), vehicle: saline with Tween-80) 104 % of control.
Take `CCN(CC)CCCNc1cc(OC)cc2cccnc12`: the T/C (dose: 10.0 mg/kg/injection, schedule: Q01DX001 (ip), vehicle: carboxymethylcellulose (CMC)) is 107 % of control and the T/C (dose: 20.0 mg/kg/injection, schedule: Q01DX001 (ip), vehicle: carboxymethylcellulose (CMC)) was 101 % of control.
Take `CC12CCC3=C(CCc4cc(O)ccc43)C1CCC2=O` (stereo not given): the T/C by setting is: (dose: 75.0 mg/kg/injection, schedule: Q01DX001 (ip), vehicle: steriod suspending solution) 91 % of control; (dose: 150.0 mg/kg/injection, schedule: Q01DX001 (ip), vehicle: steriod suspending solution) 96 % of control; (dose: 300.0 mg/kg/injection, schedule: Q01DX001 (ip), vehicle: steriod suspending solution) 101 % of control.
With `CCCCCCCCCC(=O)N(CCC)CCC`, the T/C runs as follows: under setting [1], 91 % of control; under setting [2], 88 % of control.
With `NC(=O)c1n[nH]c(C2OCC(O)C2O)c1I` (stereo not given), the T/C is 100 % of control (dose: 100.0 mg/kg/injection, schedule: Q01DX005 (ip), vehicle: saline) and 108 % of control (dose: 200.0 mg/kg/injection, schedule: Q01DX005 (ip), vehicle: saline).
For `CC(C)(C)N1CC(C(=O)O)C1`, the T/C was 97 % of control under setting [3], 103 % of control under setting [4] and 97 % of control under setting [5].
`Nc1cccc2c1C(=O)C=CC2=O`: the T/C is 103 % of control (dose: 0.78 mg/kg/injection, schedule: Q01DX009 (ip), vehicle: saline); 101 % of control (dose: 1.56 mg/kg/injection, schedule: Q01DX009 (ip), vehicle: saline); 95 % of control (dose: 1.56 mg/kg/injection, schedule: Q04DX003 (ip), vehicle: saline); 98 % of control (dose: 3.12 mg/kg/injection, schedule: Q01DX009 (ip), vehicle: saline); 103 % of control (dose: 3.12 mg/kg/injection, schedule: Q04DX003 (ip), vehicle: saline); 104 % of control (dose: 4.6 mg/kg/injection, schedule: Q01DX009 (ip), vehicle: saline).
`CSc1nc(C)c(Br)c(Nc2ccc(C(N)=O)cc2)n1`: the T/C runs as follows: (dose: 87.5 mg/kg/injection, schedule: Q01DX009 (ip), vehicle: Klucel (hydroxypropylcellulose) (HPC)) 94 % of control; (dose: 175.0 mg/kg/injection, schedule: Q01DX009 (ip), vehicle: Klucel (hydroxypropylcellulose) (HPC)) 91 % of control; (dose: 350.0 mg/kg/injection, schedule: Q01DX009 (ip), vehicle: Klucel (hydroxypropylcellulose) (HPC)) 101 % of control.
Regarding `NNC(=O)C1C2CCCCC21` (stereo not given), under setting [1], the T/C is 107 % of control.
With `O=C1C(=O)c2c3ccccc3cc3cccc1c23`, the T/C by setting is: (dose: 50.0 mg/kg/injection, schedule: Q01DX009 (ip), vehicle: saline with Tween-80) 88 % of control; under setting [6], 91 % of control.
As to `CCC1(CC)C(=O)NC(=O)N(C)C1=O`, the T/C (dose: 100.0 mg/kg/injection, schedule: Q04DX002 (ip), vehicle: Klucel (hydroxypropylcellulose) (HPC)) is 112 % of control and the T/C (dose: 200.0 mg/kg/injection, schedule: Q04DX002 (ip), vehicle: Klucel (hydroxypropylcellulose) (HPC)) was 88 % of control.
`O=C(NCCc1ccccc1)C(Cl)Cl`: the T/C under setting [7] is 93 % of control; the T/C under setting [8] is 93 % of control; the T/C under setting [9] is 103 % of control; the T/C under setting [10] was 94 % of control; the T/C under setting [11] was 95 % of control; the T/C under setting [12] is 101 % of control.
Turning to `O=P(NCCCl)(Nc1ccccc1)Nc1ccccc1`, the T/C under setting [7] was 112 % of control, the T/C under setting [8] was 108 % of control, the T/C under setting [9] was 90 % of control and the T/C under setting [10] was 108 % of control.
Consider `CC(=O)OC(C)(C)C1CCC2(C)COC3(C)CC(=O)OC23C1` (stereo not given), for which the T/C runs as follows: (dose: 33.0 mg/kg/injection, schedule: Q04DX003 (ip), vehicle: saline) 101 % of control; (dose: 66.0 mg/kg/injection, schedule: Q04DX003 (ip), vehicle: saline) 101 % of control.
Take `COc1cc(C(=O)O)cc(OC)c1OC(C)=O`: the T/C is 104 % of control under setting [6], 98 % of control under setting [13] and 88 % of control under setting [14].
`O=C1C(Cl)=C(Cl)C(=O)N1CCCCCCN1C(=O)C(Cl)=C(Cl)C1=O`: the T/C under setting [9] was 92 % of control, the T/C under setting [11] is 87 % of control and the T/C under setting [12] is 92 % of control.
For `CCCCCCCCCCCCOP(=O)(OCCCCCCCCCCCC)c1ccccc1`, the T/C reads like this: (dose: 50.0 mg/kg/injection, schedule: Q01DX001 (ip), vehicle: saline) 100 % of control; under setting [3], 97 % of control; under setting [4], 94 % of control; under setting [5], 91 % of control.
For `[Cu+2].[NH-]C(CS)C(=O)O.[NH-]C(CS)C(=O)O` (stereo not given), the T/C by setting is: (dose: 3.13 mg/kg/injection, schedule: Q04DX002 (ip), vehicle: saline with Tween-80) 97 % of control; (dose: 6.25 mg/kg/injection, schedule: Q04DX002 (ip), vehicle: saline with Tween-80) 93 % of control and 90 % of control; (dose: 25.0 mg/kg/injection, schedule: Q04DX002 (ip), vehicle: saline with Tween-80) 90 % of control; (dose: 125.0 mg/kg/injection, schedule: Q04DX002 (ip), vehicle: saline with Tween-80) 93 % of control.
For `Nc1ccc2c(c1)/C(=N/O)c1cc(Cl)ccc1-2`, the T/C by setting is: under setting [15], 109 % of control; under setting [16], 103 % of control; under setting [17], 100 % of control.
Turning to `c1cc(OC2CCCCO2)ccc1OC1CCCCO1` (stereo not given), the T/C under setting [6] is 98 % of control; the T/C under setting [1] was 95 % of control; the T/C under setting [13] is 97 % of control; the T/C under setting [2] is 93 % of control; the T/C under setting [14] was 97 % of control; the T/C (dose: 400.0 mg/kg/injection, schedule: Q04DX003 (ip), vehicle: saline with Tween-80) was 95 % of control.
For `Cc1sc(Cc2ccccc2)nc1-c1ccc(N=Cc2ccc(N(CCCl)CCCl)cc2)cc1`, the T/C is 104 % of control under setting [15], 98 % of control under setting [16] and 95 % of control under setting [17].
Consider `CCCCCP(=O)(O)O`, for which the T/C (dose: 100.0 mg/kg/injection, schedule: Q04DX002 (ip), vehicle: saline) is 92 % of control and the T/C (dose: 200.0 mg/kg/injection, schedule: Q04DX002 (ip), vehicle: saline) was 99 % of control.
For `CC[n+]1cccc(-c2ccc(NC(=O)/C=C/c3ccc(C(=O)Nc4ccc(-c5ccc[n+](CC)c5)cc4)cc3)cc2)c1`, the T/C reads like this: (dose: 7.1 mg/kg/injection, schedule: Q01DX001 (ip), vehicle: carboxymethylcellulose (CMC)) 118 % of control; (dose: 12.5 mg/kg/injection, schedule: Q01DX Z (ip), vehicle: carboxymethylcellulose (CMC)) 241 % of control; (dose: 25.0 mg/kg/injection, schedule: Q01DX001 (ip), vehicle: carboxymethylcellulose (CMC)) 152 % of control and 157 % of control; (dose: 25.0 mg/kg/injection, schedule: Q01DX Z (ip), vehicle: carboxymethylcellulose (CMC)) 211 % of control; (dose: 50.0 mg/kg/injection, schedule: Q01DX001 (ip), vehicle: carboxymethylcellulose (CMC)) 202 % of control; (dose: 50.0 mg/kg/injection, schedule: Q01DX Z (ip), vehicle: carboxymethylcellulose (CMC)) 164 % of control. Moreover, the T/C is, setting by setting: under setting [15], 238 % of control; under setting [16], 263 % of control; (dose: 300.0 mg/kg/injection, schedule: Q01DX001 (ip), vehicle: carboxymethylcellulose (CMC)) 120 % of control; (dose: 450.0 mg/kg/injection, schedule: Q01DX001 (ip), vehicle: carboxymethylcellulose (CMC)) 124 % of control; (dose: 675.0 mg/kg/injection, schedule: Q01DX001 (ip), vehicle: carboxymethylcellulose (CMC)) 107 % of control.
